Experiments:
[1] = system: Kasumi-1 cells (c-Kit N822K); assay: Cell survival in Kasumi-1 cells (Cell Counting Kit-8); type: cell-based, human; conditions: Homo sapiens, 72 hours
Procedure: Kasumi-1 cells (20,000 cells/well) were cultured in 96-well plates and maintained at 37° C. for several hours. […] 17AAG and DMAG are Hsp90 inhibitors that are currently in clinical trials and are used here as positive controls for Hsp90 inhibition. […] Cell survival was measured with Cell Counting Kit-8 (Dojindo Laboratories, Cat # CK04).

[2] = system: Karpas-299 cells (NPM-ALK); assay: Cell survival in Karpas-299 cells (Cell Counting Kit-8); type: cell-based, human; conditions: Homo sapiens, 72 hours
Procedure: Growth of this tumor cell line is dependent upon the expression of the NPM-ALK fusion protein. Karpas-299 cells (20,000 cells/well) were cultured in 96-well plates and maintained at 37° C. for several hours. The cells were incubated at 37° C. for 72 hours with various concentrations of compound 226 of the invention, 17AAG, and 17DMAG. 17AAG and 17DMAG are Hsp90 inhibitors that are currently in clinical trials and are used here as positive controls for Hsp90 inhibition. Cell survival was measured with Cell Counting Kit-8 (Dojindo Laboratories, Cat # CK04).

[3] = system: human acute myelogenous leukemia tumor cell line Mv 4-11; assay: Mv 4-11 (FLT3-ITD) nude mouse xenograft model; type: in vivo, human (xenograft in nude mouse); conditions: for % T/C value: nude mice, 3 doses
Procedure: The human acute myelogenous leukemia (AML) cell line, Mv 4-11 (ATCC #CRL-9591), was obtained from the American Type Culture Collection (ATCC; Manassas, Va., USA). Growth of this tumor cell line is dependent upon the expression of an activated form of the FLT3 tyrosine kinase receptor carrying an internal tandem duplication (ITD) mutation, which is the most common molecular defect associated with AML (K. W. Yee et al., Blood 100:2941-2949, 2002). The cells were cultured in growth media prepared with Iscove's Modified Dulbecco's Media, 10% fetal bovine serum (FBS), 1% 100× Penicillin-Streptomycin, 1% 100× sodium pyruvate and 1% 100×MEM non-essential amino acids. FBS was obtained from ATCC and all other reagents were obtained from Invitrogen Corp. (Carlsbad, Calif., USA). Cells that had been cryopreserved in liquid nitrogen were rapidly thawed at 37° C. and transferred to a tissue culture flask containing growth media and then incubated at 37° C. in a 5% CO2 incubator. To expand the cell line, cultures were passaged 1:2 to a density of 5×10 (6) cells/ml every three days by adding an equal volume of fresh growth media. When the flasks reached a density of approximately 10×10 (6) cells/ml, the above passaging process was repeated until sufficient cells had been obtained for implantation into mice.
Seven to eight week old, female Crl:CD-1-nuBR (nude) mice were obtained from Charles River Laboratories (Wilmington, Mass., USA). Animals were housed 4-5/cage in micro-isolators, with a 12 hr/12 hr light/dark cycle, acclimated for at least 1 week prior to use and fed normal laboratory chow ad libitum. Studies were conducted on animals between 8 and 10 weeks of age at implantation. To implant Mv 4-11 tumor cells into nude mice, cell cultures were centrifuged to pellet the cells, the supernatant was aspirated, the cell pellet was resuspended in 10 ml of growth media and the cell number determined using a hemocytometer. […]
Tumors were then permitted to develop in vivo until the majority reached 100-200 mm^3 in tumor volume, which typically required 1-2 weeks following implantation. […] Tumor volumes (V) were calculated by caliper measurement of the width (W), length (L) and thickness (T) of tumors using the following formula: V=0.5236×(L×W×T). Animals were randomized into treatment groups so that the median tumor volumes of each group were similar at the start of dosing. % T/C values, as a measure of efficacy, were determined as follows: • (i) If ΔT>0: % T/C=(ΔT/ΔC)×100 • (ii) If ΔT<0: % T/C=(ΔT/T0)×100 • (iii) ΔT=Change in median tumor volume between start of dosing and the end of study. • (iv) ΔC=Change in median tumor volume between start of dosing and the end of study. • (v) T0=Median tumor volume at start of dosing. […]

[4] = system: MV 4-11 cells (FLT3-ITD); assay: Cell survival in MV-4-11 cells (Cell Counting Kit-8); type: cell-based, human; conditions: Homo sapiens, MV4-11, 72 hours
Procedure: Human acute myelogenous leukemia (AML) cell line, MV 4-11 (ATCC #CRL-9591), was obtained from the American Type Culture Collection (ATCC; Manassas, Va., USA). Growth of this tumor cell line is dependent upon the expression of an activated form of the FLT3 tyrosine kinase receptor carrying an internal tandem duplication (ITD) mutation, which is the most common molecular defect associated with AML (K. W. Yee et al., Blood 100:2941-2949, 2002). MV 4-11 cells (20,000 cells/well) were cultured in 96-well plates and maintained at 37° C. for several hours. The cells were incubated at 37° C. for 72 hours with various concentrations of compounds of the invention, 17AAG, or DMAG. 17AAG and DMAG are Hsp90 inhibitors that are currently in clinical trials and are used here as positive controls for Hsp90 inhibition. Cell survival was measured with Cell Counting Kit-8 (Dojindo Laboratories, Cat # CK04).

[5] = system: EGFR (T790M and L858R mutations); assay: Degradation of EGFR in NCI-H1975 cells (Western blot); type: cell-based, human; conditions: 18 hours, 1.0 μM, 0.5 μM and 0.1 μM
Procedure: Non-small cell lung cancer cell line, NCI-H1975 (2×10^6 cells), which harbors both the T790M and the L858R mutations in EGFR and is resistant to erlotinib, was obtained from American Type Culture Collection and was treated with either Compound 226 (1.0 μM, 0.5 μM and 0.1 μM) or 17-AAG (1.0 μM, 0.5 μM and 0.1 μM). After 18 hours, the cells were lysed with 1× lysis buffer and a western blot was perform, and phosphorylated and total EGFR was detected with anti-EGFR antibodies.

[6] = 125 mg/kg i.v. 1 time per week, day 41

CC(C)c1cc(-c2nnc(O)n2-c2ccc3c(ccn3C)c2)c(O)cc1O [Compound 226, 3-(2,4-di-hydroxy-5-isopropyl-phenyl)-4-(1-methyl-indol-5-yl)-5-hydroxy-[1,2,4] triazole] was tested, and the IC50 [1] was 4 nM, the IC50 [2] was 10 nM and the “average bodyweight loss relative to the start of the study” value [3, 6] was −1.4% (+/−1.6 SEM). For the same compound, the “animals with no apparent tumors” value ([3]; 125 mg/kg treatment group, by day 41 (end of the study)) was 2 of 8, the “% T/C value” ([3]; 50 mg/kg i.v. 1 time per week, day 41) was −63.8% and the “% T/C value” [3, 6] was −93.0%. For the same compound, the IC50 [4] was < 4 nM and the “degradation of phosphorylated and total EGFR” value [5] was “induced degradation phosphorylated and total EGFR more potently than 17AAG”.

From patent US20080004266A1, “Method for treating proliferative disorders associated with protooncogene products” (priority 2006, published 2008)
